According to patent publication US20220340650A1, “COMBINATION THERAPY WITH CGRP ANTAGONISTS” (Allergan Pharmaceuticals International Limited, priority 2019, published 2022):
Entries after “also recorded” stand apart in the source; their conditions may differ. Blank lines part the entries; values can stand above or below the molecule they belong to.

Legend:
[1] = Phase 1b trial NCT04179474, plasma ubrogepant pharmacokinetics, erenumab arm (Part 1); assay type: in vivo, human; conditions: for half-life: read-out: t1/2, mean (converted)
Protocol: (§1) A two-part, multi-center, open-label, phase 1b trial (NCT04179474) in 40 adults (aged 18-50 years) diagnosed with migraine was conducted to evaluate the impact of erenumab or galcanezumab on the pharmacokinetics (PK), safety, and tolerability of ubrogepant in patients with migraine.
(§2) This open-label, multicenter trial enrolled adults diagnosed for greater than or equal to one year with migraine not on preventive treatment. Participants were assigned to an erenumab arm (Part 1) or a galcanezumab arm (Part 2). In each arm, participants received ubrogepant 100 mg on day 1 (without an antibody). On day 8, participants received the assigned monoclonal antibody: single subcutaneous (SC) erenumab 140 mg injection (Part 1) or galcanezumab 240 mg (2 SC 120 mg injections) (Part 2). Ubrogepant 100 mg was administered once daily on days 12-15. Participants were followed for 30 days.
(§3) Of 40 enrolled participants, 20 were included in part 1 (n=20 ubrogepant, n=19 erenumab, and n=19 co-administered ubrogepant and erenumab) and 20 were included in part 2 (n=20 ubrogepant, n=20 galcanezumab, and n=19 co-administered ubrogepant and galcanezumab).
(§4) PK parameters, derived from plasma ubrogepant concentrations in blood collected at prespecified time points over 24 hours post-dose on days 1 and 12, included area under the curve from time 0 to time t (AUC0-t) or to infinity (AUC0-∞); peak plasma concentration (Cmax), time to Cmax (Tmax); and apparent terminal half life (t1/2). Safety outcomes included incidence of adverse events (AEs; daily and through follow-up), and laboratory values, vital signs, and electrocardiogram (ECG) results (at prespecified timepoints pre- and post-dose). Log-transformed Cmax, AUC0-t, and […] , for ubrogepant with and without erenumab or galcanezumab with 90% CI were constructed.

[2] = Phase 1b trial NCT04179474, safety and tolerability (adverse events), erenumab arm (Part 1); parameters: species or system human; conditions: in vivo
Protocol: as §1, §2, §3, §4

[3] = Phase 1b trial NCT04179474, safety and tolerability (adverse events), galcanezumab arm (Part 2); parameters: species or system human; conditions: in vivo
Protocol: as §1, §2, §3, §4

[4] = Phase 1b trial NCT04179474, plasma ubrogepant pharmacokinetics, galcanezumab arm (Part 2); assay type: in vivo, human; conditions: for AUC(0-t): 100 mg
Protocol: as §1, §2
Of 40 enrolled participants, 20 were included in part 1 (n=20 ubrogepant, n=19 erenumab, and n=19 co-administered ubrogepant and erenumab) and 20 were included in part 2 (n=20 ubrogepant, n=20 galcanezumab, […]).
as §4

CYP enzymes = conditions: general statement, no test described; cited from earlier work
[5] = erenumab arm, ubrogepant 100 mg alone, day 1, n = 20
[6] = galcanezumab arm, ubrogepant 100 mg alone, day 1, n = 20

CL/F, mean [1, 5]: 57.4 L/h
t1/2, mean [1, 5]: 4.6 h
AUC(0-t) ([1]; human, plasma, oral, erenumab arm, ubrogepant 100 mg alone, day 1, read-out: AUC0-t, geometric LSM): 1780 ng·h/mL
AUC(0-inf) ([1]; human, plasma, oral, erenumab arm, ubrogepant 100 mg alone, day 1, read-out: AUC0-∞, geometric LSM): 1810 ng·h/mL
Cmax ([1]; human, plasma, oral, erenumab arm, ubrogepant 100 mg alone, day 1, read-out: Cmax, geometric LSM): 431 ng/mL
AUC(0-t) ([1]; human, plasma, other: extravascular administration, erenumab arm, ubrogepant 100 mg alone, day 1, n = 20, read-out: AUC0-t, mean): 1840 ng·h/mL
AUC(0-inf) ([1]; human, plasma, other: extravascular administration, erenumab arm, ubrogepant 100 mg alone, day 1, n = 20, read-out: AUC0-∞, mean): 1880 ng·h/mL
Cmax ([1]; human, plasma, other: extravascular administration, erenumab arm, ubrogepant 100 mg alone, day 1, n = 20, read-out: Cmax, mean): 459 ng/mL
Vd/F ([1]; human, plasma, other: extravascular administration, erenumab arm, ubrogepant 100 mg alone, day 1, n = 20, read-out: VZ/F, mean): 437 L
half-life ([1]; human, plasma, other: extravascular administration, erenumab arm, ubrogepant 100 mg alone, day 1, n = 20): 5.3 h
half-life ([1]; human, plasma, erenumab arm, ubrogepant 100 mg day 12, after SC erenumab 140 mg on day 8, n = 19): 5.3 h
Tmax ([1]; human, plasma, erenumab arm, ubrogepant 100 mg day 12, after SC erenumab 140 mg on day 8, n = 19, read-out: tmax, median): 1.5 h
AUC0-∞, mean [4, 6]: 1732.2 ng·h/mL
CL/F, mean [4, 6]: 72.9 L/h
Cmax, mean [4, 6]: 415.3 ng/mL
t1/2, mean [4, 6]: 4.6 h
AUC(0-t) ([4]; human, plasma, oral, galcanezumab arm, ubrogepant 100 mg alone, day 1, n = 20, read-out: AUC0-t, mean): 1700 ng·h/mL
AUC(0-t) ([4]; human, plasma, oral, galcanezumab arm, ubrogepant 100 mg alone, day 1, read-out: AUC0-t, geometric LSM): 1510 ng·h/mL
Vd/F ([4]; human, plasma, oral, galcanezumab arm, ubrogepant 100 mg alone, day 1, n = 20, read-out: VZ/F, mean): 569 L
AUC(0-inf) ([4]; human, plasma, oral, galcanezumab arm, ubrogepant 100 mg alone, day 1, read-out: AUC0-∞, geometric LSM): 1540 ng·h/mL
Cmax ([4]; human, plasma, oral, galcanezumab arm, ubrogepant 100 mg alone, day 1, read-out: Cmax, geometric LSM): 359 ng/mL
Tmax ([4]; human, plasma, oral, galcanezumab arm, ubrogepant 100 mg day 12, after SC galcanezumab 240 mg on day 8, n = 20): 1.5 h
half-life ([4]; human, plasma, oral, galcanezumab arm, ubrogepant 100 mg day 12, after SC galcanezumab 240 mg on day 8, n = 20, read-out: t1/2, mean (converted)): 5 h
change in ubrogepant Cmax with galcanezumab coadministration ([4]; vs ubrogepant alone): unchanged
increase in ubrogepant AUC0-t with galcanezumab coadministration ([4]; vs ubrogepant alone): 5%
increase in ubrogepant AUC0-∞ with galcanezumab coadministration ([4]; vs ubrogepant alone): 5%
Molecule: C[C@@H]1[C@H](c2ccccc2)C[C@H](NC(=O)c2cnc3c(c2)C[C@@]2(C3)C(=O)Nc3ncccc32)C(=O)N1CC(F)(F)F [Ubrogepant, ubrogepant]
change in ubrogepant PK (Cmax, AUC0-t, AUC0-∞) after coadministration with erenumab versus alone ([1]; ubrogepant 100 mg, erenumab 140 mg SC): no significant change; also recorded: minimally elevated; also recorded: unchanged
Abdominal Pain, participants ([2]; human): 0 participants
Constipation, participants ([2]; human): 0 participants
Flatulence, participants ([2]; human): 0 participants
Headache, participants ([2]; human): 1 participants
Headache, participants (%) ([2]; human): (5.0) %
Nasopharyngitis, participants ([2]; human): 1 participants
Nasopharyngitis, participants (%) ([2]; human): (5.0) %
Nausea, participants ([2]; human): 0 participants
Somnolence, participants ([2]; human): 1 participants
Somnolence, participants (%) ([2]; human): (5.0) %
TEAEs, participants (%) ([2]; human): (35.0) %
Treatment Related AEs, participants (%) ([2]; human): (10.0) %
Upper Abdominal Pain, participants ([2]; human): 0 participants
safety concerns on co-administration [2]: no safety concerns were identified
Abdominal Discomfort, participants ([3]; human): 0 participants
Dizziness, participants ([3]; human): 0 participants
Headache, participants ([3]; human): 0 participants
Hiccups, participants ([3]; human): 0 participants
TEAEs, participants (%) ([3]; human): (10.0) %
Upper Abdominal Pain, participants ([3]; human): 0 participants
safety concerns on co-administration [3]: no safety concerns were identified
change in ubrogepant PK (Cmax, AUC0-t, AUC0-28) after coadministration with galcanezumab versus alone ([4]; ubrogepant 100 mg, galcanezumab 240 mg SC): no significant change; also recorded: unchanged

B1: erenumab (antibody, chains of the INN, looked up, V domains shown)
VH: QVQLVESGGGVVQPGRSLRLSCAASGFTFSSFGMHWVRQAPGKGLEWVAVISFDGSIKYSVDSVKGRFTISRDNSKNTLFLQMNSLRAEDTAVYYCARDRLNYYDSSGYYHYKYYGMAVWGQGTTVTVSS
VL: QSVLTQPPSVSAAPGQKVTISCSGSSSNIGNNYVSWYQQLPGTAPKLLIYDNNKRPSGIPDRFSGSKSGTSTTLGITGLQTGDEADYYCGTWDSRLSAVVFGGGTKLTVL
metabolism by CYP enzymes (CYP enzymes): not metabolized by CYP enzymes
Abdominal Pain, participants [2]: 0 participants
Constipation, participants [2]: 0 participants
Flatulence, participants [2]: 1 participants
Flatulence, participants (%) [2]: (5.3) %
Headache, participants [2]: 6 participants
Headache, participants (%) [2]: (31.6) %
Nasopharyngitis, participants [2]: 0 participants
Nausea, participants [2]: 0 participants
Somnolence, participants [2]: 0 participants
TEAEs, participants (%) [2]: (42.1) %
Treatment Related AEs, participants (%) [2]: (36.8) %
Upper Abdominal Pain, participants [2]: 0 participants

B2: galcanezumab (antibody, chains of the INN, looked up, V domains shown)
VH: QVQLVQSGAEVKKPGSSVKVSCKASGYTFGNYWMQWVRQAPGQGLEWMGAIYEGTGKTVYIQKFADRVTITADKSTSTAYMELSSLRSEDTAVYYCARLSDYVSGFGYWGQGTTVTVSS
VL: DIQMTQSPSSLSASVGDRVTITCRASKDISKYLNWYQQKPGKAPKLLIYYTSGYHSGVPSRFSGSGSGTDFTLTISSLQPEDFATYYCQQGDALPPTFGGGTKVEIK
notes: long-acting CGRP antagonist antibody that targets the CGRP ligand
metabolism by CYP enzymes (CYP enzymes): not metabolized by CYP enzymes
Abdominal Discomfort, participants [3]: 0 participants
Dizziness, participants [3]: 0 participants
Headache, participants [3]: 3 participants
Headache, participants (%) [3]: (15.0) %
Hiccups, participants [3]: 1 participants
Hiccups, participants (%) [3]: (5.0) %
TEAEs, participants (%) [3]: (15.0) %
Treatment-related AEs, participants (%) [3]: (15.0) %
Upper Abdominal Pain, participants [3]: 0 participants
